Assays:
AHR = AHR activation in mouse ileal enteroids (Cyp1a1 qRT-PCR); type: cell-based; set-up: Cyp1a1 expression (AHR activation) in enteroids: dose or concentration left out as unconfirmed
Procedure: Primary intestinal crypt cultures (enteroids) were generated from the ileum of neonatal (p7-p11) wild type and Ahr′ mice at as described, Neal et al., 2012, and maintained in Matrigel (Corning). The enteroids were digested and passed using TrypLE Express (Gibco) weekly, and used between passage 3 and 10 for all experiments. The enteroids were pre-treated with I3C ([…], 12 h), A18 (20 μM, 12 h) or human breast milk (100 μL/mL, Innovative Research, prepared by 5-minute-cenrifugation at 12,000 g and then filtration of supernatant through a 0.22-μm filter) and then treated with LPS (50 μg/mL) for 4 hours for further analysis.
Primary intestinal crypt cultures (enteroids) were generated from the ileum of neonatal (p7-p11) mice at as described, Neal et al., 2012, and maintained in Matrigel (Corning). The enteroids were digested and passed using TrypLE Express (Gibco) weekly, and used between passage 3 and 10 for all experiments. The enteroids were pre-treated with tested compound (40 uM, overnight) and then treated with LPS (50 μg/mL) for 6 hours for further analysis.
Total RNA was isolated using the RNeasy mini kit (Qiagen) and complementary DNA was synthesized from 0.5 μg RNA using QuantiTect Reverse Transcription kit (Qiagen) following the manufacturer's protocols. The mRNA quantification was performed on the Bio-Rad CFX96 Real-Time System (Bio-Rad) using iTaq™ universal SYBR® Green supermix (Bio-Rad) and the primers listed in Table 2. The relative mRNA expression levels were normalized against the expression of the housekeeping gene ribosomal protein lateral stalk subunit P0 (Rplp0).

TLR4 = TLR4 signaling and Tlr4 expression in newborn mouse ileum in vivo (endotoxemia model, LPS)
Procedure: Endotoxemia was induced in neonatal mouse pups (p11) by administering 5 mg/kg lipopolysaccharides (LPS) via intraperitoneal injection, and ileal samples were harvested 6 hours after LPS treatments. […] I3C and A18 were administered to the pregnant mother daily until the offspring were studied further for experimental NEC or endotoxemia as above. […] The mRNA quantification was performed on the Bio-Rad CFX96 Real-Time System (Bio-Rad) using iTaqTM universal SYBR® Green supermix (Bio-Rad) and the primers listed in Table 1. The relative mRNA expression levels were normalized against the expression of the housekeeping gene ribosomal protein lateral stalk subunit P0 (Rplp0). For microRNA isolation, freshly harvested, snap-frozen ileal tissue was subjected to total RNA isolation using the RNeasy plus universal mini kit (Qiagen) and miRNA was quantified using miScript PCR starter kit (Qiagen) following the manufacturer's protocols. The relative miRNA expression levels were normalized against the expression of housekeeping miRNA miR-191.

OCc1c[nH]c2ccccc12 [I3C, indole-3-carbinol]
Cyp1a1 expression (AHR activation) in enteroids (AHR; Ahr^−/− enteroids, I3C or human breast milk): not
Cyp1a1 expression (AHR activation) in enteroids (AHR; wild-type enteroids, I3C (12 h) or human breast milk (100 μL/mL)): induced the expression of Cyp1a1
TLR4 signaling (LPS-induced Tnfa) in the intestine (TLR4; Ahr^−/− mice, I3C): did not reduce
Tlr4 expression in the intestinal mucosa (TLR4; Ahr^−/− mice, I3C): did not reduce
induction of the proinflammatory cytokine 116 in the neonatal (p11) mouse intestine in response to LPS (TLR4; maternal administration of I3C, vs pups from non I3C-treated mothers): significantly reduced the induction of the proinflammatory cytokine 116
Tlr4 expression in the intestinal mucosa / newborn ileum (TLR4; wild-type mice, fed I3C or A18): reduced expression of Tlr4
LPS-induced Tnfa expression (TLR4 signaling) in the intestine (TLR4; wild-type p11 mice fed I3C): reduced LPS-induced Tnfa expression
